In the NIST ThermoML archive (doi:10.1021/je030226s):

Assays:
[1] = xn = mol fraction of the nth substance listed; conditions: 101.32 kPa, Liquid
[2] = refractive index (Na D-line) (dimensionless); xn = mol fraction of the nth substance listed; conditions: 101.32 kPa, Liquid

CCCCCl [1-chlorobutane] + CCO
Conditions	mass density, 288.15 K [kg/m3]	mass density, 298.15 K [kg/m3]	mass density, 308.15 K [kg/m3]	refractive index, 288.15 K	refractive index, 298.15 K	refractive index, 308.15 K	viscosity, 288.15 K [mPa·s]	viscosity, 298.15 K [mPa·s]	viscosity, 308.15 K [mPa·s]
[1], x2 = 0	892.2	881	869.7	–	–	–	0.472	0.423	0.382
[1], x2 = 0.05	888.5	877.3	866	–	–	–	0.475	0.424	0.384
[1], x2 = 0.1	885.3	874.2	862.8	–	–	–	0.479	0.428	0.388
[1], x2 = 0.2	878.7	867.7	856.4	–	–	–	0.5	0.442	0.395
[1], x2 = 0.3	871.7	860.8	849.7	–	–	–	0.529	0.465	0.41
[1], x2 = 0.4	864.1	853.4	842.4	–	–	–	0.566	0.493	0.43
[1], x2 = 0.5	855.7	845.2	834.5	–	–	–	0.63	0.543	0.469
[1], x2 = 0.6	846.4	836.1	825.7	–	–	–	0.708	0.601	0.515
[1], x2 = 0.7	835.8	825.9	815.8	–	–	–	0.807	0.68	0.581
[1], x2 = 0.8	823.9	814.4	804.7	–	–	–	0.932	0.781	0.67
[1], x2 = 0.9	810	800.9	791.7	–	–	–	1.099	0.903	0.765
[1], x2 = 0.95	802.2	793.4	784.5	–	–	–	1.209	0.994	0.839
[2], x2 = 0	–	–	–	1.4045	1.3993	1.3941	–	–	–
[2], x2 = 0.05	–	–	–	1.403	1.3978	1.3925	–	–	–
[2], x2 = 0.1	–	–	–	1.4016	1.3964	1.3912	–	–	–
[2], x2 = 0.2	–	–	–	1.3988	1.3937	1.3885	–	–	–
[2], x2 = 0.3	–	–	–	1.3958	1.3907	1.3855	–	–	–
[2], x2 = 0.4	–	–	–	1.3925	1.3875	1.3823	–	–	–
[2], x2 = 0.5	–	–	–	1.389	1.384	1.3788	–	–	–
[2], x2 = 0.6	–	–	–	1.3851	1.3802	1.375	–	–	–
[2], x2 = 0.7	–	–	–	1.3807	1.3759	1.3708	–	–	–
[2], x2 = 0.8	–	–	–	1.3756	1.3711	1.3661	–	–	–
[2], x2 = 0.9	–	–	–	1.3697	1.3653	1.3609	–	–	–
[2], x2 = 0.95	–	–	–	1.3665	1.3624	1.3581	–	–	–

CCCCCl [1-chlorobutane] + CO
Conditions	mass density, 288.15 K [kg/m3]	mass density, 298.15 K [kg/m3]	mass density, 308.15 K [kg/m3]	refractive index, 288.15 K	refractive index, 298.15 K	refractive index, 308.15 K	viscosity, 288.15 K [mPa·s]	viscosity, 298.15 K [mPa·s]	viscosity, 308.15 K [mPa·s]
[1], x2 = 0	892.2	881	869.7	–	–	–	0.472	0.423	0.382
[1], x2 = 0.05	889.6	878.4	867.1	–	–	–	0.463	0.416	0.375
[1], x2 = 0.1	887.2	876.1	864.7	–	–	–	0.462	0.413	0.374
[1], x2 = 0.2	882.4	871.2	859.9	–	–	–	0.465	0.412	0.376
[1], x2 = 0.3	876.9	865.6	854.5	–	–	–	0.478	0.421	0.382
[1], x2 = 0.4	870.6	859.6	848.4	–	–	–	0.496	0.435	0.393
[1], x2 = 0.5	863.3	852.4	841.3	–	–	–	0.516	0.45	0.407
[1], x2 = 0.6	854.6	843.9	833	–	–	–	0.536	0.469	0.416
[1], x2 = 0.7	844.2	833.7	823.1	–	–	–	0.559	0.489	0.431
[1], x2 = 0.8	831.7	821.4	811	–	–	–	0.581	0.506	0.445
[1], x2 = 0.9	815.9	806	796	–	–	–	0.601	0.521	0.457
[1], x2 = 0.95	806.6	796.9	787.2	–	–	–	0.613	0.532	0.467
[2], x2 = 0	–	–	–	1.4045	1.3993	1.3941	–	–	–
[2], x2 = 0.05	–	–	–	1.4032	1.398	1.3928	–	–	–
[2], x2 = 0.1	–	–	–	1.4015	1.3964	1.3912	–	–	–
[2], x2 = 0.2	–	–	–	1.3978	1.3927	1.3877	–	–	–
[2], x2 = 0.3	–	–	–	1.3936	1.3885	1.3834	–	–	–
[2], x2 = 0.4	–	–	–	1.3885	1.3835	1.3785	–	–	–
[2], x2 = 0.5	–	–	–	1.3827	1.3778	1.3728	–	–	–
[2], x2 = 0.6	–	–	–	1.3759	1.371	1.366	–	–	–
[2], x2 = 0.7	–	–	–	1.3679	1.3628	1.3579	–	–	–
[2], x2 = 0.8	–	–	–	1.3579	1.3529	1.3478	–	–	–
[2], x2 = 0.9	–	–	–	1.3457	1.3413	1.3365	–	–	–
[2], x2 = 0.95	–	–	–	1.3384	1.3342	1.3298	–	–	–

CCCCO [butan-1-ol] + CCCCCl
x1 = 1
Conditions	mass density, 288.15 K [kg/m3]	mass density, 298.15 K [kg/m3]	mass density, 308.15 K [kg/m3]	refractive index, 288.15 K	refractive index, 298.15 K	refractive index, 308.15 K	viscosity, 288.15 K [mPa·s]	viscosity, 298.15 K [mPa·s]	viscosity, 308.15 K [mPa·s]
[1]	813.5	805.9	798.2	–	–	–	3.394	2.598	2.019
[2]	–	–	–	1.401	1.3972	1.3932	–	–	–

CCO [ethanol] + CCCCCl
x1 = 1
Conditions	mass density, 288.15 K [kg/m3]	mass density, 298.15 K [kg/m3]	mass density, 308.15 K [kg/m3]	refractive index, 288.15 K	refractive index, 298.15 K	refractive index, 308.15 K	viscosity, 288.15 K [mPa·s]	viscosity, 298.15 K [mPa·s]	viscosity, 308.15 K [mPa·s]
[1]	793.8	785.2	776.6	–	–	–	1.317	1.085	0.902
[2]	–	–	–	1.363	1.3591	1.355	–	–	–

CO [methanol] + CCCCCl
x1 = 1
Conditions	mass density, 288.15 K [kg/m3]	mass density, 298.15 K [kg/m3]	mass density, 308.15 K [kg/m3]	refractive index, 288.15 K	refractive index, 298.15 K	refractive index, 308.15 K	viscosity, 288.15 K [mPa·s]	viscosity, 298.15 K [mPa·s]	viscosity, 308.15 K [mPa·s]
[1]	796.1	786.6	777.2	–	–	–	0.627	0.543	0.473
[2]	–	–	–	1.3303	1.3275	1.3254	–	–	–

CCCO [propan-1-ol] + CCCCCl
x1 = 1
Conditions	mass density, 288.15 K [kg/m3]	mass density, 298.15 K [kg/m3]	mass density, 308.15 K [kg/m3]	refractive index, 288.15 K	refractive index, 298.15 K	refractive index, 308.15 K	viscosity, 288.15 K [mPa·s]	viscosity, 298.15 K [mPa·s]	viscosity, 308.15 K [mPa·s]
[1]	807.6	799.6	791.5	–	–	–	2.504	1.958	1.548
[2]	–	–	–	1.3869	1.3829	1.3789	–	–	–
